Test results taken from US10472346B2, “Potent gamma-secretase modulators” (The General Hospital Coporation, priority 2014, dated 2019).

What was measured:
Aβ40 levels = test: Effects of 9 days treatment on rat plasma and CSF Aβ40 levels; type: in vivo, male Sprague-Dawley rat; details: for reduction in CSF Aβ40 levels: rat CSF; for reduction in plasma Aβ40 levels: rat plasma
Experimental: FIG. 6: The effects of Compound 1 after 9-days treatment on Aβ40 levels in male Sprague-Dawley rat plasma A) where the reduction in plasma levels was 61%, 89% and 95%, for dosages of 5, 25, and 50 mg/kg, respectively and in male Sprague-Dawley rat CSF B) where the reduction in CSF levels was 47%, 75% and 85%, for dosages of 5, 25, and 50 mg/kg, respectively.
Effects of Compound 1 (9 Days Treatment) on Rat Plasma and CSF Aβ40 Levels. The effects of Compound 1 after 9-days treatment on Aβ40 levels in rat plasma and CSF are depicted in FIG. 6A (plasma) and FIG. 6B (CSF). For FIG. 6A, the reduction in plasma levels was 61%, 89% and 95%, for dosages of 5, 25, and 50 mg/kg, respectively. For FIG. 6B, the reduction in CSF levels was 47%, 75% and 85%, for dosages of 5, 25, and 50 mg/kg, respectively.

[1] = test system: APP-CTF (C-terminal fragment); test: Accumulation of APP-CTFs in brain extracts (immunoblot, anti-APP carboxyl-terminal antibody); type: in vivo; details: administered doses of 5, 25 or 50 mg/kg
Experimental: FIG. 7: Protein blots of indicated proteins from subjects administered vehicle and Compound 1 at doses of 5, 25 and 50 mg/kg.
Brain extracts which were prepared using 1.0% SDS run on SDS-PAGE, transferred to PVDF membranes and immunoblots were performed using an anti-APP carboxyl-terminal antibody.

COc1nc(-c2cc(C)c(N[C@@H](C)c3ccc(F)cc3)nn2)ccc1-n1cnc(C)c1 [Compound 1, (S)—N-(1-(4-fluorophenyl)ethyl)-6-(6-methoxy-5-(4-methyl-1H-imidazol-1-yl)pyridin-2-yl)-4-methylpyridazin-3-amine]
reduction in CSF Aβ40 levels (Aβ40 levels; 5 mg/kg): 47% | reduction in CSF Aβ40 levels (Aβ40 levels; 25 mg/kg): 75% | reduction in CSF Aβ40 levels (Aβ40 levels; 50 mg/kg): 85% | reduction in plasma Aβ40 levels (Aβ40 levels; 5 mg/kg): 61% | reduction in plasma Aβ40 levels (Aβ40 levels; 25 mg/kg): 89% | reduction in plasma Aβ40 levels (Aβ40 levels; 50 mg/kg): 95% | accumulation of APP-CTF (C-terminal fragment) [1]: does not cause accumulation of APP-CTF
